Data: patent US20230257372A1 (CHONG KUN DANG PHARMACEUTICAL CORP., priority 2020, published 2023)
pIC50: −log10 of the molar value.

Legend:
human recombinant HDAC6 = target: T1, human recombinant HDAC6 (Homo sapiens, UniProt Q9UBN7); experiment: HDAC6 enzyme activity inhibition (HDAC Fluorimetric Drug Discovery Kit); format: biochemical; conditions: for HDAC6 selectivity (fold): HDAC6 over HDAC1; for pIC50: human recombinant HDAC6, same protocol as HDAC1
T1 construct: purchased Calbiochem Inc. 382180
T1 sequence (Q9UBN7 1-1215): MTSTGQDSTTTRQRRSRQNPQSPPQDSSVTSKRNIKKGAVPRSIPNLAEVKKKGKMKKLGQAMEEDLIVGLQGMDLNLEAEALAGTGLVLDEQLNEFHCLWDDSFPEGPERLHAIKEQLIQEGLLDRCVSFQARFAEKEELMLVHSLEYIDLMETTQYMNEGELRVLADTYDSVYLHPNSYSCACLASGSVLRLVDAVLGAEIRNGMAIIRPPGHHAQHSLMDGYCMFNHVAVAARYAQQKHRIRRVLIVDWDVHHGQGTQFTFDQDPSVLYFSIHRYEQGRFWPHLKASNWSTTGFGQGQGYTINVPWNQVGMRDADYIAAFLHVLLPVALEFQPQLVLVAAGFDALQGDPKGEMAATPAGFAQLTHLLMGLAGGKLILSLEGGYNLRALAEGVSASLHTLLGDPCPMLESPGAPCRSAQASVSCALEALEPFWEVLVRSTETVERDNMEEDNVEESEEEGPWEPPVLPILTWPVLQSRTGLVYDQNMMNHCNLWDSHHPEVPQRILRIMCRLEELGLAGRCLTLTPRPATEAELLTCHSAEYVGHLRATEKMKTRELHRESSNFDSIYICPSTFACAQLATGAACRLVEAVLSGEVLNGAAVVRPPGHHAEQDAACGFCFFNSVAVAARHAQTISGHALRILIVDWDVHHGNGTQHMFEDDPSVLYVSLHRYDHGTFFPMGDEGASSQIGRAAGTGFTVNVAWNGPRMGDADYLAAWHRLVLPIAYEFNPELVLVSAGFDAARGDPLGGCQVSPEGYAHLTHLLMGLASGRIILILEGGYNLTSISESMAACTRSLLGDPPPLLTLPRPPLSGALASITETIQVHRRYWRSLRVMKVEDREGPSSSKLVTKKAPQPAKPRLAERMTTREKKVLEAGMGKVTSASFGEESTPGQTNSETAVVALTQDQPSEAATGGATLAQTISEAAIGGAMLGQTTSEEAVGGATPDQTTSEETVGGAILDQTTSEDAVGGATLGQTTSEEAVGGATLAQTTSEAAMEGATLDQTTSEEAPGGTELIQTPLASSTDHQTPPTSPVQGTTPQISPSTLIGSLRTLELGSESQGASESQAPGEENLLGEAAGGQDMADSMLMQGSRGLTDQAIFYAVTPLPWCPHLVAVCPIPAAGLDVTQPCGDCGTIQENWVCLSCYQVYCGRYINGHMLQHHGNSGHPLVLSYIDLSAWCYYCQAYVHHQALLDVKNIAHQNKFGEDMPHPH
Method in brief: (§1)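 Enzyme at 0.3 µg per well was reacted with 10 μM fluorogenic substrate in presence of 5-fold diluted compound, 30° C for 60 min.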

human recombinant HDAC1 = target: T2, human recombinant HDAC1 (Homo sapiens, UniProt Q13547); experiment: HDAC1 enzyme activity inhibition (HDAC Fluorimetric Drug Discovery Kit); format: biochemical; conditions: human recombinant HDAC1, Fluor de Lys substrate, 30° C. 60 minutes; read-out: HDAC1
T2 construct: purchased Enzo Life Science, Inc. BML-SE456
T2 sequence (Q13547 whole entry): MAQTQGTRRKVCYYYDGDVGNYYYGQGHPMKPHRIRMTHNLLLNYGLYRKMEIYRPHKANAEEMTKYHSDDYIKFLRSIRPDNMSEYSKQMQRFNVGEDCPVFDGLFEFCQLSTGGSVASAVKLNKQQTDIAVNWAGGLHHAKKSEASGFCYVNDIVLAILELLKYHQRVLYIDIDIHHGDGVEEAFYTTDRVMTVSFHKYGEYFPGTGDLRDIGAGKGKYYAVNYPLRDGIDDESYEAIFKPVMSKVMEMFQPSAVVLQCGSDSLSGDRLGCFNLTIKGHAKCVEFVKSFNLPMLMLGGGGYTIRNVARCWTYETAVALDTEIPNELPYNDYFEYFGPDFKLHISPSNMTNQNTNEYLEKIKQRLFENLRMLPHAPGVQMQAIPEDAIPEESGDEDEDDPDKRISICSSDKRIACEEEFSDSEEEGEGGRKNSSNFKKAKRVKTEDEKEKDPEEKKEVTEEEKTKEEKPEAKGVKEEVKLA
Method in brief: as §1

Structure (SMILES) | HDAC6 selectivity (fold) (human recombinant HDAC6) | pIC50 (human recombinant HDAC6) | pIC50 (human recombinant HDAC1)
Fc1cc(-c2nnc(C(F)F)o2)ccc1Cn1cc(-c2ccccc2CN2CC3(COC3)C2)nn1 [Compound 4586, 6-(2-(1-(4-(5-(difluoromethyl)-1,3,4-oxadiazol-2-yl)-2-fluorobenzyl)-1H-1,2,3-triazol-4-yl)benzyl)-2-oxa-6-azaspiro[3.3]heptane] | 225 | 6.65 | < 4.30
CN1CCN(Cc2ccccc2-c2cn(Cc3ccc(-c4nnc(C(F)F)o4)cc3F)nn2)CC1 [Compound 4587, 2-(difluoromethyl)-5-(3-fluoro-4-((4-(2-((4-methylpiperazin-1-yl)methyl)phenyl)-1H-1,2,3-triazol-1-yl)methyl)phenyl)-1,3,4-oxadiazole] | 274 | 6.74 | < 4.30
CCN1CCN(Cc2ccccc2-c2cn(Cc3ccc(-c4nnc(C(F)F)o4)cc3F)nn2)CC1 [Compound 4588, 2-(difluoromethyl)-5-(4-((4-(2-((4-ethylpiperazin-1-yl)methyl)phenyl)-1H-1,2,3-triazol-1-yl)methyl)-3-fluorophenyl)-1,3,4-oxadiazole] | 229 | 6.66 | < 4.30
Fc1cc(-c2nnc(C(F)F)o2)ccc1Cn1cc(-c2ccccc2CNC2CCC2)nn1 [Compound 4589, N-(2-(1-(4-(5-(difluoromethyl)-1,3,4-oxadiazol-2-yl)-2-fluorobenzyl)-1H-1,2,3-triazol-4-yl)benzyl)cyclobutanamine] | 172 | 6.54 | < 4.30
Fc1cc(-c2nnc(C(F)F)o2)ccc1Cn1cc(-c2ccccc2CNC2COC2)nn1 [Compound 4590, N-(2-(1-(4-(5-(difluoromethyl)-1,3,4-oxadiazol-2-yl)-2-fluorobenzyl)-1H-1,2,3-triazol-4-yl)benzyl)oxetan-3-amine] | 308 | 6.79 | < 4.30
FC(F)c1nnc(-c2ccc(Cn3cc(-c4cccc5c4CN(C4COC4)C5)nn3)nc2)o1 [Compound 4599, 2-(difluoromethyl)-5-(6-((4-(2-(oxetan-3-yl)isoindolin-4-yl)-1H-1,2,3-triazol-1-yl)methyl)pyridin-3-yl)-1,3,4-oxadiazole] | 662 | 7.12 | < 4.30
Fc1cc(-c2nnc(C(F)F)o2)ccc1Cn1cc(-c2cccc(N3CCN(CC4(F)CC4)CC3)c2F)nn1 [Compound 4602, 2-(difluoromethyl)-5-(3-fluoro-4-((4-(2-fluoro-3-(4-((1-fluorocyclopropyl)methyl)piperazin-1-yl)phenyl)-1H-1,2,3-triazol-1-yl)methyl)phenyl)-1,3,4-oxadiazole] | 313 | 6.80 | < 4.30
Fc1cc(-c2nnc(C(F)F)o2)ccc1Cn1cc(-c2cccc(N3CCN(CC4CC(F)(F)C4)CC3)c2F)nn1 [Compound 4603, 2-(4-((4-(3-(4-((3,3-difluorocyclobutyl)methyl)piperazin-1-yl)-2-fluorophenyl)-1H-1,2,3-triazol-1-yl)methyl)-3-fluorophenyl)-5-(difluoromethyl)-1,3,4-oxadiazole] | 744 | 7.17 | < 4.30

Now those with a higher pIC50 (human recombinant HDAC6), led by results:

HDAC6 selectivity (fold) (human recombinant HDAC6) | pIC50 (human recombinant HDAC6) | pIC50 (human recombinant HDAC1) | Structure (SMILES)
3546 | 7.85 | < 4.30 | CCN1CCN(c2cc(-c3cn(Cc4ccc(-c5nnc(C(F)F)o5)cn4)nn3)ccn2)CC1 [Compound 4591, 2-(difluoromethyl)-5-(6-((4-(2-(4-ethylpiperazin-1-yl)pyridin-4-yl)-1H-1,2,3-triazol-1-yl)methyl)pyridin-3-yl)-1,3,4-oxadiazole]
3246 | 7.81 | < 4.30 | CC(C)N1CCN(c2cc(-c3cn(Cc4ccc(-c5nnc(C(F)F)o5)cn4)nn3)ccn2)CC1 [Compound 4592, 2-(difluoromethyl)-5-(6-((4-(2-(4-isopropylpiperazin-1-yl)pyridin-4-yl)-1H-1,2,3-triazol-1-yl)methyl)pyridin-3-yl)-1,3,4-oxadiazole]
2127 | 7.63 | < 4.30 | FC(F)c1nnc(-c2ccc(Cn3cc(-c4ccnc(N5CCN(C6CC6)CC5)c4)nn3)nc2)o1 [Compound 4593, 2-(6-((4-(2-(4-cyclopropylpiperazin-1-yl)pyridin-4-yl)-1H-1,2,3-triazol-1-yl)methyl)pyridin-3-yl)-5-(difluoromethyl)-1,3,4-oxadiazole]
2057 | 7.61 | < 4.30 | FC(F)c1nnc(-c2ccc(Cn3cc(-c4ccnc(N5CCN(C6COC6)CC5)c4)nn3)nc2)o1 [Compound 4594, 2-(difluoromethyl)-5-(6-((4-(2-(4-(oxetan-3-yl)piperazin-1-yl)pyridin-4-yl)-1H-1,2,3-triazol-1-yl)methyl)pyridin-3-yl)-1,3,4-oxadiazole]
1046 | 7.32 | < 4.30 | CN1Cc2cccc(-c3cn(Cc4ccc(-c5nnc(C(F)F)o5)cn4)nn3)c2C1 [Compound 4595, 2-(difluoromethyl)-5-(6-((4-(2-methylisoindolin-4-yl)-1H-1,2,3-triazol-1-yl)methyl)pyridin-3-yl)-1,3,4-oxadiazole]
782 | 7.19 | < 4.30 | CCN1Cc2cccc(-c3cn(Cc4ccc(-c5nnc(C(F)F)o5)cn4)nn3)c2C1 [Compound 4596, 2-(difluoromethyl)-5-(6-((4-(2-ethylisoindolin-4-yl)-1H-1,2,3-triazol-1-yl)methyl)pyridin-3-yl)-1,3,4-oxadiazole]
813 | 7.21 | < 4.30 | CC(C)N1Cc2cccc(-c3cn(Cc4ccc(-c5nnc(C(F)F)o5)cn4)nn3)c2C1 [Compound 4597, 2-(difluoromethyl)-5-(6-((4-(2-isopropylisoindolin-4-yl)-1H-1,2,3-triazol-1-yl)methyl)pyridin-3-yl)-1,3,4-oxadiazole]
1108 | 7.35 | < 4.30 | FC(F)c1nnc(-c2ccc(Cn3cc(-c4cccc5c4CN(C4CCC4)C5)nn3)nc2)o1 [Compound 4598, 2-(6-((4-(2-cyclobutylisoindolin-4-yl)-1H-1,2,3-triazol-1-yl)methyl)pyridin-3-yl)-5-(difluoromethyl)-1,3,4-oxadiazole]
1533 | 7.49 | < 4.30 | Fc1c(-c2cn(Cc3ccc(-c4nnc(C(F)F)o4)cn3)nn2)cccc1N1CCN(CC2(F)CC2)CC1 [Compound 4600, 2-(difluoromethyl)-5-(6-((4-(2-fluoro-3-(4-((1-fluorocyclopropyl)methyl)piperazin-1-yl)phenyl)-1H-1,2,3-triazol-1-yl)methyl)pyridin-3-yl)-1,3,4-oxadiazole]
1392 | 7.44 | < 4.30 | Fc1c(-c2cn(Cc3ccc(-c4nnc(C(F)F)o4)cn3)nn2)cccc1N1CCN(CC2CC(F)(F)C2)CC1 [Compound 4601, 2-(6-((4-(3-(4-((3,3-difluorocyclobutyl)methyl)piperazin-1-yl)-2-fluorophenyl)-1H-1,2,3-triazol-1-yl)methyl)pyridin-3-yl)-5-(difluoromethyl)-1,3,4-oxadiazole]
2347 | 7.67 | < 4.30 | CN(C)[C@H]1CCN(Cc2ccc(-c3cn(Cc4ccc(-c5nnc(C(F)F)o5)cc4F)nn3)cc2)C1 [Compound 4604, (S)-1-(4-(1-(4-(5-(difluoromethyl)-1,3,4-oxadiazol-2-yl)-2-fluorobenzyl)-1H-1,2,3-triazol-4-yl)benzyl)-N,N-dimethylpyrrolidin-3-amine]
